Tested on: p53 transcription activity
Test: p53 luciferase reporter assay in A375 cells
Assay type: cell-based, human
Details: 0.5 μM alone, 12 h
Procedure: Transient transfection: A375 cells were seeded in a culture dish overnight before transfection. p53-luciferase plasmid, and TurboFect reagent were mixed together in Dulbecco's modified eagle medium (DMEM) without FBS and the resulting solution was incubated for 20 min at 37 °C. The mixture was then added to the A375 cells in the wells. The cells were incubated for 12 h at 37 °C in a CO2 incubator before use.
Briefly, A375 cells were seed at a density of 6 × 10^5 cell in a culture dish overnight. The cells were co-transfected with p53-luciferase plasmid in serum-free DMEM medium using TurboFect Transfection Reagent. Then, the transfected cells were seeded in a 24-well plate and treated with an indicated concentration of 1 in 1% FBS medium for 6h. The transfected cells were lysed by the addition of 160 μL Passive Lysis Buffer (PLB). 50 μL of the cell lysates were transferred to a 96-well white plate followed by adding 50 μL of luciferase reporter reagent (LAR). The transcriptional activity was determined by measuring the activity of firefly luciferase in SpectraMax M5 microplate reader (Molecular Devices).

CCCS(=O)(=O)Nc1ccc(F)c(C(=O)c2c[nH]c3ncc(-c4ccc(Cl)cc4)cc23)c1F [vemurafenib, reference compound]
p53 transcription activity, single agent: negligible effect
